Data: patent US20150105252A1, “SUBSTITUTED PYRAZOLES AS HERBICIDES” (E I DU PONT DE NEMOURS AND COMPANY, priority 2013, published 2015)

Key:
[1] = test system: windgrass; assay: Test C postemergence; format: in vivo, Apera spica-venti; conditions: 250 g ai/ha, scale 0 to 100 (0 no effect, 100 complete control)
[2] = test system: nightshade; assay: Test C preemergence; format: in vivo, Solanum ptycanthum; conditions: for Plant response rating (scale of 0 to 100), Nightshade: Preemergence, 250 g ai/ha; for Nightshade plant response rating / Plant response rating, Nightshade: preemergence; for Plant response rating, Nightshade: 62 g ai/ha, scale 0 to 100, 0 = no effect, 100 = complete control
Source text: Seeds of plant species selected from blackgrass (Alopecurus myosuroides), ryegrass, Italian (Italian ryegrass, Lolium multiflorum), wheat (winter wheat, Triticum aestivum), galium (catchweed bedstraw, Galium aparine), corn (Zea mays), crabgrass, large (large crabgrass, Digitaria sanguinalis), foxtail, giant (giant foxtail, Setaria faberii), johnsongrass (Sorghum halepense), lambsquarters (Chenopodium album), morningglory (Ipomoea coccinea), nutsedge, yellow (yellow nutsedge, Cyperus esculentus), pigweed (redroot pigweed, Amaranthus retroflexus), ragweed (common ragweed, Ambrosia elation), soybean (Glycine max), barnyardgrass (Echinochloa crus-galli), oilseed rape (Brassica napus), waterhemp (common waterhemp, Amaranthus rudis), oat, wild (wild oat, Avena fatua), kochia (Kochia scoparia), Surinam grass (Brachiaria decumbens), foxtail, green (green foxtail, Setaria viridis), goosegrass (Eleusine indica), bromegrass, downy (downy bromegrass, Bromus tectorum), nightshade (eastern black nightshade, Solanum ptycanthum), cocklebur (common cocklebur, Xanthium strumarium), cupgrass, woolly (woolly cupgrass, Eriochloa villosa), bermudagrass (Cynodon dactylon), sunflower, (common oilseed sunflower, Helianthus annuus), Russian thistle (Salsola kali), and velvetleaf (Abutilon theophrasti) were planted into a blend of loam soil and sand and treated preemergence with test chemicals formulated in a non-phytotoxic solvent mixture which included a surfactant.
At the same time, plants selected from these crop and weed species and also chickweed (common chickweed, Stellaria media), canarygrass (littleseed canarygrass, Phalaris minor), and deadnettle (henbit deadnettle, Lamium amplexicaule), were planted in pots containing Redi-Earth® planting medium (Scotts Company, 14111 Scottslawn Road, Marysville, Ohio 43041) comprising spaghnum peat moss, vermiculite, wetting agent and starter nutrients and treated with postemergence applications of test chemicals formulated in the same manner. Plants ranged in height from 2 to 18 cm (1- to 4-leaf stage) for postemergence treatments. Treated plants and controls were maintained in a greenhouse for 13 to 15 days, after which time all species were compared to controls and visually evaluated. Plant response ratings, summarized in Table C, are based on a scale of 0 to 100 where 0 is no effect and 100 is complete control. A dash (-) response means no test result.

[3] = test system: johnsongrass; assay: Test F preemergence; format: in vivo, Sorghum halepense
Source text: (§1) Seeds of plant species selected from corn (Zea mays), soybean (Glycine max), velvetleaf (Abutilon theophrasti), lambsquarters (Chenopodium album), wild poinsettia (Euphorbia heterophylla), pigweed, palmer (palmer pigweed, Amaranthus palmeri), common waterhemp (Amaranthus rudis), surinam grass (Brachiaria decumbens), large crabgrass (Digitaria sanguinalis), crabgrass, Brazil (Brazilian crabgrass, Digitaria horizontalis), fall panicum (Panicum dichotomiflorum), giant foxtail (Setaria faberii), green foxtail (Setaria viridis), goosegrass (Eleusine indica), johnsongrass (Sorghum halepense), common ragweed (Ambrosia elation), barnyardgrass (Echinochloa crus-galli), southern sandbur (Cenchrus echinatus), arrowleaf sida (Sida rhombifolia), Italian ryegrass (Lolium multiflorum), dayflower, VA (Virginia (VA) dayflower, Commelina virginica), field bindweed (Convolvulus arvensis), cocklebur (common cocklebur, Xanthium strumarium), morningglory (Ipomoea coccinea), nightshade (eastern black nightshade, Solanum ptycanthum), kochia (Kochia scoparia), yellow nutsedge (Cyperus esculentus), and hairy beggarticks (Bidens pilosa), were planted into a silt loam soil and treated preemergence with test chemicals formulated in a non-phytotoxic solvent mixture which included a surfactant.
(§2) At the same time, plants from these crop and weed species and also horseweed (Canada horseweed, Conyza canadensis), smartweed (ladysthumb smartweed, Polygonum persicaria), waterhemp_RES1, (ALS & Triazine resistant common waterhemp, Amaranthus rudis), and waterhemp_RES2, (ALS & HPPD resistant common waterhemp, Amaranthus rudis) were treated with postemergence applications of test chemicals formulated in the same manner. Plants ranged in height from 2 to 18 cm for postemergence treatments (1- to 4-leaf stage). Treated plants and controls were maintained in a greenhouse for 14 to 21 days, after which time all species were compared to controls and visually evaluated. Plant response ratings, summarized in Table F, are based on a scale of 0 to 100 where 0 is no effect and 100 is complete control. A dash (-) response means no test result.

[4] = test system: green foxtail; assay: Test F preemergence; format: in vivo, Setaria viridis
Source text: as §1, §2

[5] = test system: nightshade; assay: Test F preemergence; format: in vivo, Solanum ptycanthum
Source text: as §1, §2

[6] = test system: velvetleaf; assay: Test F preemergence; format: in vivo, Abutilon theophrasti
Source text: as §1, §2

[7] = test system: southern sandbur; assay: Test F preemergence; format: in vivo, Cenchrus echinatus
Source text: as §1, §2

[8] = test system: common waterhemp; assay: Test F preemergence; format: in vivo, Amaranthus rudis
Source text: as §1, §2

[9] = test system: blackgrass; assay: Test A postemergence; format: in vivo, Alopecurus myosuroides
Summary of the method: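 Visual injury ratings, 0 = no effect to 100 = complete control, taken about 10 days after treatment against untreated controls. Test chemicals, in a non-phytotoxic surfactant-containing solvent, were sprayed onto soil preemergence or onto one- to two-leaf plants (2–10 cm) postemergence, in loam–sand soil under greenhouse conditions.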

[10] = 31 g ai/ha, scale 0 to 100 (0 no effect, 100 complete control), 13 to 15 days
[11] = 125 g ai/ha, scale 0 to 100, 0 is no effect, 100 is complete control
[12] = Preemergence, 31 g ai/ha, scale 0 to 100
[13] = Preemergence, 62 g ai/ha, scale 0 to 100
[14] = Preemergence, 125 g ai/ha, scale 0 to 100
[15] = preemergence, 8 g ai/ha, scale 0 to 100, 100 is complete control
[16] = preemergence, 16 g ai/ha, scale 0 to 100, 100 is complete control
[17] = Postemergence, 500 g ai/ha, 0 to 100 scale (0 no effect, 100 complete control)
[18] = postemergence, 125 g ai/ha, about 10 days, visual rating on 0 to 100 scale (0 no effect, 100 complete control)
[19] = Preemergence, 250 g ai/ha, scale 0 to 100
[20] = Preemergence, 16 g ai/ha, scale 0 to 100

SMILES: CCc1cc(C(=O)NCC(F)(F)F)nn1Cc1cccc(OC(F)(F)F)c1 [Compound 20]
- Plant response rating, Windgrass [1]: 45

SMILES: CCCNC(=O)c1cc(CC)n(Cc2cccc(OC(F)(F)F)c2)n1 [Compound 27]
- Plant response rating, Windgrass [1]: 45

SMILES: CCc1cc(C(=O)NOC(C)C)nn1Cc1cccc(OC(F)(F)F)c1 [Compound 70]
- Plant response rating, Windgrass [1]: 50
- Plant response rating (scale of 0 to 100), Nightshade [2]: 98
- Nightshade plant response rating [2, 10]: 70
- Plant response rating, Nightshade ([2]; 13 to 15 days): 98
- Nightshade plant response rating [2, 11]: 98

SMILES: CCONC(=O)c1cc(CC)n(Cc2cccc(OC(F)(F)F)c2)n1 [Compound 72]
- Plant response rating, Windgrass [1]: 30
- Plant response rating (scale of 0 to 100), Nightshade [2]: 100
- Nightshade plant response rating [2, 10]: 75
- Plant response rating, Nightshade ([2]; 13 to 15 days): 98
- Nightshade plant response rating [2, 11]: 98

SMILES: Cc1cc(C(=O)NCC(F)(F)F)nn1Cc1ccnc(C(F)(F)F)c1 [Compound 74]
- Plant response rating, Windgrass [1]: 5
- Plant response rating (scale of 0 to 100), Nightshade [2]: 98
- Nightshade plant response rating [2, 10]: 90
- Plant response rating, Nightshade ([2]; 13 to 15 days): 90
- Nightshade plant response rating [2, 11]: 95

SMILES: CCc1cc(-c2ccc(C(F)(F)F)cc2)nn1Cc1ccnc(C(F)(F)F)c1 [Compound 110]
- Plant response rating, Johnsongrass [3, 12]: 15
- Plant response rating, Johnsongrass [3, 13]: 25
- Plant response rating, Johnsongrass [3, 14]: 80
- Plant response rating, Johnsongrass [3, 15]: 0
- Plant response rating, Johnsongrass [3, 16]: 0
- Plant response rating, Green Foxtail [4, 12]: 75
- Plant response rating, Green Foxtail [4, 13]: 100
- Plant response rating, Green Foxtail [4, 14]: 100
- Plant response rating, Green Foxtail [4, 15]: 25
- Plant response rating, Green Foxtail [4, 16]: 30
- Plant response rating, Nightshade [5, 12]: 80
- Plant response rating, Nightshade [5, 13]: 85
- Plant response rating, Nightshade [5, 14]: 95
- Plant response rating, Nightshade [5, 15]: 50
- Plant response rating, Nightshade [5, 16]: 65
- Plant response rating, Velvetleaf [6, 12]: 30
- Plant response rating, Velvetleaf [6, 13]: 40
- Plant response rating, Velvetleaf [6, 14]: 75
- Plant response rating, Velvetleaf [6, 15]: 20
- Plant response rating, Velvetleaf [6, 16]: 35
- Plant response rating, Southern Sandbur [7, 12]: 20
- Plant response rating, Southern Sandbur [7, 13]: 35
- Plant response rating, Southern Sandbur [7, 14]: 75
- Plant response rating, Southern Sandbur [7, 15]: 0
- Plant response rating, Southern Sandbur [7, 16]: 20
- Plant response rating, Common Waterhemp [8, 12]: 85
- Plant response rating, Common Waterhemp [8, 13]: 100
- Plant response rating, Common Waterhemp [8, 14]: 100
- Plant response rating, Common Waterhemp [8, 15]: 65
- Plant response rating, Common Waterhemp [8, 16]: 65

SMILES: CCc1cc(C(=O)NOC(C)C)nn1Cc1ccnc(OC(F)F)c1 [Compound 126]
- Blackgrass plant response rating [9, 17]: 90
- Blackgrass plant response rating [9, 18]: 90

SMILES: CCCc1cc(C(=O)NCC(F)(F)F)nn1Cc1ccnc(OC(F)F)c1 [Compound 127]
- Blackgrass plant response rating [9, 17]: 90
- Blackgrass plant response rating [9, 18]: 90

SMILES: CCOc1cc(C(=O)NCC(F)(F)F)nn1Cc1ccnc(OC(F)F)c1 [Compound 128]
- Blackgrass plant response rating [9, 17]: 100
- Blackgrass plant response rating [9, 18]: 90

SMILES: CCCNC(=O)c1cc(OCC)n(Cc2ccnc(OC(F)F)c2)n1 [Compound 136]
- Blackgrass plant response rating [9, 17]: 100
- Blackgrass plant response rating [9, 18]: 80

SMILES: CCCc1cc(C(=O)NC(C)C)nn1Cc1cc(C(F)(F)F)nn1C [Compound 201]
- Plant response rating, Johnsongrass [3, 13]: 25
- Plant response rating, Johnsongrass [3, 14]: 80
- Plant response rating, Johnsongrass [3, 19]: 95
- Plant response rating, Johnsongrass [3, 16]: 0
- Plant response rating, Green Foxtail [4, 13]: 40
- Plant response rating, Green Foxtail [4, 14]: 75
- Plant response rating, Green Foxtail [4, 19]: 80
- Plant response rating, Green Foxtail [4, 16]: 0
- Plant response rating, Nightshade [5, 20]: 10
- Plant response rating, Nightshade [5, 13]: 80
- Plant response rating, Nightshade [5, 14]: 95
- Plant response rating, Nightshade [5, 19]: 98
- Plant response rating, Nightshade [5, 16]: 0
- Plant response rating, Velvetleaf [6, 13]: 0
- Plant response rating, Velvetleaf [6, 14]: 30
- Plant response rating, Velvetleaf [6, 19]: 100
- Plant response rating, Velvetleaf [6, 16]: 0
- Plant response rating, Velvetleaf ([6]; preemergence, scale 0 to 100, 100 is complete control): 0
- Plant response rating, Southern Sandbur [7, 13]: 0
- Plant response rating, Southern Sandbur [7, 14]: 30
- Plant response rating, Southern Sandbur [7, 19]: 75
- Plant response rating, Southern Sandbur [7, 16]: 0
- Plant response rating, Common Waterhemp [8, 20]: 0
- Plant response rating, Common Waterhemp [8, 13]: 75
- Plant response rating, Common Waterhemp [8, 14]: 80
- Plant response rating, Common Waterhemp [8, 19]: 100
- Plant response rating, Common Waterhemp [8, 16]: 5

SMILES: CCCc1cc(C(=O)NC2CC2)nn1Cc1ccnc(OC(F)F)c1 [Compound 205]
- Blackgrass plant response rating [9, 17]: 90
- Blackgrass plant response rating [9, 18]: 70

SMILES: CCc1cc(C(=O)NCC(F)(F)F)nn1Cc1ccnc(Br)c1 [Compound 224]
- Plant response rating, Johnsongrass [3, 13]: 0
- Plant response rating, Johnsongrass [3, 14]: 35
- Plant response rating, Johnsongrass [3, 19]: 75
- Plant response rating, Green Foxtail [4, 13]: 35
- Plant response rating, Green Foxtail [4, 14]: 70
- Plant response rating, Green Foxtail [4, 19]: 95
- Plant response rating, Nightshade [5, 14]: 0
- Plant response rating, Nightshade [5, 19]: 95
- Plant response rating, Velvetleaf [6, 13]: 50
- Plant response rating, Velvetleaf [6, 14]: 80
- Plant response rating, Velvetleaf [6, 19]: 95
- Plant response rating, Southern Sandbur [7, 13]: 5
- Plant response rating, Southern Sandbur [7, 14]: 35
- Plant response rating, Southern Sandbur [7, 19]: 15
- Plant response rating, Common Waterhemp [8, 13]: 100
- Plant response rating, Common Waterhemp [8, 14]: 100
- Plant response rating, Common Waterhemp [8, 19]: 100
